We go through 1 molecule from PMC8535866, “TMEM16A, a Homoharringtonine Receptor, as a Potential Endogenic Target for Lung Cancer Treatment” (International Journal of Molecular Sciences, 2021).

The target of test [1] is T1, TMEM16A (Mus musculus, UniProt Q8BHY3, K769A).
T1 construct: gene Ano1; TMEM16A mutant plasmid
T1 sequence (Q8BHY3 1-960 K769A): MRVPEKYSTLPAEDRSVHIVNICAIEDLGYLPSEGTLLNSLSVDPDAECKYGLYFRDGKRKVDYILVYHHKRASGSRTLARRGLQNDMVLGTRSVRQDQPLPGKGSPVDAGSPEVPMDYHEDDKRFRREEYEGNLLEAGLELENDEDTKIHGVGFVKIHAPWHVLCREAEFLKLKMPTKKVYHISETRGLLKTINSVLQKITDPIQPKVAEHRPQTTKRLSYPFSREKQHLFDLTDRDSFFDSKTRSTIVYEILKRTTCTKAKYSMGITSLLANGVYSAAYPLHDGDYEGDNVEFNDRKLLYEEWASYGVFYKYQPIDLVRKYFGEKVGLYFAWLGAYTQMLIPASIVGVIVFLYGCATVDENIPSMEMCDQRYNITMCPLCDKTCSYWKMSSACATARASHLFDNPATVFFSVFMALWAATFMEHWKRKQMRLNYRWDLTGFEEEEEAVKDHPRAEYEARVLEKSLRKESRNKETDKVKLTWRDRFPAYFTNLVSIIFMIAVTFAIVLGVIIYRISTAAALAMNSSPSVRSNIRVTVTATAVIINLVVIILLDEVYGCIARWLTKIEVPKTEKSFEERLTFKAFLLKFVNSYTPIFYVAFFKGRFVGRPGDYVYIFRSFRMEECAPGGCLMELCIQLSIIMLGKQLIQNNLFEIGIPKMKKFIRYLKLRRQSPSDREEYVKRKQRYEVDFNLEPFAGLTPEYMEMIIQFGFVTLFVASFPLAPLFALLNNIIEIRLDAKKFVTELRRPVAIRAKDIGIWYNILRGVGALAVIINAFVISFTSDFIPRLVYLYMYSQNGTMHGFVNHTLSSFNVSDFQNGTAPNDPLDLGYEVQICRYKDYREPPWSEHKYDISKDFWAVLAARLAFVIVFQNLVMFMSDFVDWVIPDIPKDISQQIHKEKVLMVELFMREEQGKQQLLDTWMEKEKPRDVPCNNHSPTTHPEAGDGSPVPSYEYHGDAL
Kind of test: whole-cell patch clamp of TMEM16A mutant. It is filed as cell-based. (In general: Patch clamp records ionic current or voltage across a cell membrane.)

Test [2] concerns the target T2, TMEM16A (Mus musculus, UniProt Q8BHY3).
T2 construct: gene Ano1; endogenous TMEM16A in LA795 cells
T2 sequence (Q8BHY3 1-960): T1 sequence (Q8BHY3 1-960 K769A) with A769K
Kind of test: whole-cell patch clamp in LA795 cells, Hill fit. It is filed as cell-based.

Where a chain is given by its changes, count along the chain named.

As usually defined, the IC50 is the concentration needed to halve the response being measured. Lower therefore signals greater potency in that assay. As for `COC(=O)C[C@](O)(CCCC(C)(C)O)C(=O)O[C@@H]1C(OC)=C[C@]23CCCN2CCc2cc4c(cc2[C@H]13)OCO4` [HHT, Homoharringtonine], the values for the IC50 against TMEM16A [1] and against TMEM16A [2] were 70.8 ± 24.3 µM and 11.4 ± 1.68 µM, respectively.
